Laboratory results taken from publication PMC7156458, “Synthetic biology based construction of biological activity-related library of fungal decalin-containing diterpenoid pyrones” (Nature Communications, 2020).
Values joined by “and” are separate entries in the source; they are usually repeats but may differ in a detail not shown here. Identical values can stand only once. Like-named read-outs stand apart in the source and are kept apart here.

Key:
Assay type in all cases: cell-based
[1] = system: MAGI cells; test: cytotoxicity in the anti-HIV assay (CC50); conditions: single determinations
[2] = system: l(2)mbn cells; test: cytotoxicity in Drosophila l(2)mbn cells; conditions: for Luminescence Raw1: replicate 1; for Luminescence Raw2: replicate 2; for IC50: Drosophila melanogaster, cytotoxicity
Procedure: (§1) We screened the DDPs on the Drosophila assay system for cytotoxicity, inhibitory activity of innate immune signalling and insecticidal activity. The cytotoxicity of the DDPs was evaluated using two cell lines, embryonic macrophage-derived DL1 cells[58]–[60] and larval blood cell-derived l(2)mbn cells, and their IC50 values are listed in Supplementary Table 23.

[3] = cytotoxicity in Drosophila l(2)mbn cells; conditions: Drosophila, l(2)mbn cells (larval blood cell-derived)
Procedure: as §1

[4] = system: DL1 cells; test: cytotoxicity in Drosophila DL1 cells; conditions: DL1 cells; for IC50: Drosophila melanogaster, cytotoxicity
Procedure: as §1

[5] = cytotoxicity in Drosophila DL1 cells; conditions: Drosophila, DL1 cells (embryonic macrophage-derived), DL1 cells
Procedure: as §1

[6] = system: human immunodeficiency virus-1 (HIV-1); test: anti-HIV MAGI assay; conditions: anti-HIV
Description: We examined the inhibitory activities of DDPs against various species of bacteria (both gram-negative and gram-positive bacteria), fungi and viruses. […] In contrast, preliminary screening of the DDPs for anti-viral agents with hepatitis B virus (HBV), measles virus (MV), Epstein-Barr virus (EBV), herpes simplex virus (HSV) and human immunodeficiency virus-1 (HIV-1) indicated their selective inhibition of HIV.

[7] = average of two replicates, read-out: IC50 Average
[8] = replicate 1, read-out: IC50 (1)
[9] = replicate 2, read-out: IC50 (2)
[10] = replicate 1, relative to DMSO 1%, read-out: % viability, viability 1
[11] = replicate 2, relative to DMSO 1%, read-out: % viability, viability 2
[12] = Human immunodeficiency virus 1, MAGI, average of numeric determinations, read-out: Avg. EC50
[13] = Human immunodeficiency virus 1, MAGI, MAGI assay, read-out: EC50

C=C1CCC2C(C)(CCC=C(C)C)C(O)CCC2(C)C1Cc1c(OC)oc(CO)c(C(=O)OC)c1=O (stereo not shown) [Compound 13]
Cytotoxicity [1]: >10 µM | Luminescence Raw1 ([2]; 0.04 µM): 3699578 | Luminescence Raw2 ([2]; 0.04 µM): 3900517 | Luminescence Raw1 ([2]; 0.2 µM): 4107234 | Luminescence Raw2 ([2]; 0.2 µM): 3571875 | Luminescence Raw1 ([2]; 1 µM): 4025701 | Luminescence Raw2 ([2]; 1 µM): 3137197 | Luminescence Raw1 ([2]; 4 µM): 2332844 | Luminescence Raw2 ([2]; 4 µM): 2029883 | Luminescence Raw1 ([2]; 10 µM): 535109 | Luminescence Raw2 ([2]; 10 µM): 623453 | Luminescence Raw1 ([2]; 20 µM): 280543 | Luminescence Raw2 ([2]; 20 µM): 241241 | IC50 [2, 7]: 8460 nM | IC50 ([2]; average±SEM, read-out: IC50): 8460 ± 980 nM | IC50 [2, 8]: 9440 nM | IC50 [2, 9]: 7470 nM | viability at 0.04 µM [3, 10]: 144% | viability at 0.04 µM [3, 11]: 152% | viability at 0.2 µM [3, 10]: 160% | viability at 0.2 µM [3, 11]: 139% | viability at 1 µM [3, 10]: 157% | viability at 1 µM [3, 11]: 122% | viability at 4 µM [3, 10]: 90.9% | viability at 4 µM [3, 11]: 79.1% | viability at 10 µM [3, 10]: 20.9% | viability at 10 µM [3, 11]: 24.3% | viability at 20 µM [3, 10]: 10.9% | viability at 20 µM [3, 11]: 9.4% | Luminescence Raw1 ([4]; 0.04 µM, replicate 1): 2061595 | Luminescence Raw2 ([4]; 0.04 µM, replicate 2): 2096579 | Luminescence Raw1 ([4]; 0.2 µM, replicate 1): 1624487 | Luminescence Raw2 ([4]; 0.2 µM, replicate 2): 1452825 | Luminescence Raw1 ([4]; 1 µM, replicate 1): 197587 | Luminescence Raw2 ([4]; 1 µM, replicate 2): 202634 | Luminescence Raw1 ([4]; 4 µM, replicate 1): 125835 | Luminescence Raw2 ([4]; 4 µM, replicate 2): 104201 | Luminescence Raw1 ([4]; 10 µM, replicate 1): 148189 | Luminescence Raw2 ([4]; 10 µM, replicate 2): 124032 | Luminescence Raw1 ([4]; 20 µM, replicate 1): 95187 | Luminescence Raw2 ([4]; 20 µM, replicate 2): 81125 | IC50 [4, 7]: 292 nM | IC50 ([4]; average±SEM, read-out: IC50): 290 ± 20 nM | IC50 [4, 8]: 311 nM | IC50 [4, 9]: 273 nM | viability at 0.04 µM [5, 10]: 100% | viability at 0.04 µM [5, 11]: 102% | viability at 0.2 µM [5, 10]: 78.9% | viability at 0.2 µM [5, 11]: 70.5% | viability at 1 µM [5, 10]: 9.59% | viability at 1 µM [5, 11]: 9.84% | viability at 4 µM [5, 10]: 6.11% | viability at 4 µM [5, 11]: 5.06% | viability at 10 µM [5, 10]: 7.19% | viability at 10 µM [5, 11]: 6.02% | viability at 20 µM [5, 10]: 4.62% | viability at 20 µM [5, 11]: 3.94% | EC50 [6, 12]: 68.8 nM | EC50 ([6]; Human immunodeficiency virus 1, MAGI, single determinations, read-out: Efficacy (EC50)): 69.7 nM | EC50 ([6]; single determinations, read-out: Efficacy (EC50)): 61.1 nM and 81.4 nM and 63.1 nM

C=C1CCC2C(C)(CCC=C(C)C)C(O)CCC2(C)C1Cc1c(OC)oc(C)c(C(=O)OC)c1=O (stereo not shown) [Compound 14]
Cytotoxicity [1]: >10 µM | Luminescence Raw1 ([2]; 0.04 µM): 3506221 | Luminescence Raw2 ([2]; 0.04 µM): 2917163 | Luminescence Raw1 ([2]; 0.2 µM): 3483495 | Luminescence Raw2 ([2]; 0.2 µM): 3765235 | Luminescence Raw1 ([2]; 1 µM): 3358321 | Luminescence Raw2 ([2]; 1 µM): 3748640 | Luminescence Raw1 ([2]; 4 µM): 473811 | Luminescence Raw2 ([2]; 4 µM): 410710 | Luminescence Raw1 ([2]; 10 µM): 260351 | Luminescence Raw2 ([2]; 10 µM): 232227 | Luminescence Raw1 ([2]; 20 µM): 192204 | Luminescence Raw2 ([2]; 20 µM): 176340 | IC50 [2, 7]: 3740 nM | IC50 ([2]; average±SEM, read-out: IC50): 3740 ± 140 nM | IC50 [2, 8]: 3600 nM | IC50 [2, 9]: 3880 nM | viability at 0.04 µM [3, 10]: 137% | viability at 0.04 µM [3, 11]: 114% | viability at 0.2 µM [3, 10]: 136% | viability at 0.2 µM [3, 11]: 147% | viability at 1 µM [3, 10]: 131% | viability at 1 µM [3, 11]: 146% | viability at 4 µM [3, 10]: 18.5% | viability at 4 µM [3, 11]: 16% | viability at 10 µM [3, 10]: 10.1% | viability at 10 µM [3, 11]: 9.05% | viability at 20 µM [3, 10]: 7.49% | viability at 20 µM [3, 11]: 6.87% | Luminescence Raw1 ([4]; 0.04 µM, replicate 1): 2252387 | Luminescence Raw2 ([4]; 0.04 µM, replicate 2): 2365278 | Luminescence Raw1 ([4]; 0.2 µM, replicate 1): 1952676 | Luminescence Raw2 ([4]; 0.2 µM, replicate 2): 1693730 | Luminescence Raw1 ([4]; 1 µM, replicate 1): 208403 | Luminescence Raw2 ([4]; 1 µM, replicate 2): 165136 | Luminescence Raw1 ([4]; 4 µM, replicate 1): 117902 | Luminescence Raw2 ([4]; 4 µM, replicate 2): 126556 | Luminescence Raw1 ([4]; 10 µM, replicate 1): 133046 | Luminescence Raw2 ([4]; 10 µM, replicate 2): 121508 | Luminescence Raw1 ([4]; 20 µM, replicate 1): 103480 | Luminescence Raw2 ([4]; 20 µM, replicate 2): 86894 | IC50 [4, 7]: 438 nM | IC50 ([4]; average±SEM, read-out: IC50): 440 ± 60 nM | IC50 [4, 8]: 502 nM | IC50 [4, 9]: 374 nM | viability at 0.04 µM [5, 10]: 109% | viability at 0.04 µM [5, 11]: 115% | viability at 0.2 µM [5, 10]: 94.8% | viability at 0.2 µM [5, 11]: 82.2% | viability at 1 µM [5, 10]: 10.1% | viability at 1 µM [5, 11]: 8.02% | viability at 4 µM [5, 10]: 5.72% | viability at 4 µM [5, 11]: 6.14% | viability at 10 µM [5, 10]: 6.46% | viability at 10 µM [5, 11]: 5.9% | viability at 20 µM [5, 10]: 5.02% | viability at 20 µM [5, 11]: 4.22% | EC50 [6, 13]: < 200 nM | EC50 [6, 12]: 45.7 nM

C=C1CC[C@H]2[C@]3(C)C[C@@H](C=C(C)C)O[C@H]3CC[C@]2(C)[C@@H]1Cc1c(OC)oc(CO)c(C)c1=O [Compound 17]
Cytotoxicity [1]: >10 µM | Luminescence Raw1 ([2]; 0.04 µM): 2242516 | Luminescence Raw2 ([2]; 0.04 µM): 5241058 | Luminescence Raw1 ([2]; 0.2 µM): 3856705 | Luminescence Raw2 ([2]; 0.2 µM): 5991979 | Luminescence Raw1 ([2]; 1 µM): 4822512 | Luminescence Raw2 ([2]; 1 µM): 6091579 | Luminescence Raw1 ([2]; 4 µM): 1969854 | Luminescence Raw2 ([2]; 4 µM): 1392467 | Luminescence Raw1 ([2]; 10 µM): 122097 | Luminescence Raw2 ([2]; 10 µM): 121376 | Luminescence Raw1 ([2]; 20 µM): 118130 | Luminescence Raw2 ([2]; 20 µM): 243967 | IC50 [2, 7]: 1780 nM | IC50 ([2]; average±SEM, read-out: IC50): 1780 ± 430 nM | IC50 [2, 8]: 1350 nM | IC50 [2, 9]: 2220 nM | viability at 0.04 µM [3, 10]: 35.7% | viability at 0.04 µM [3, 11]: 83.5% | viability at 0.2 µM [3, 10]: 61.4% | viability at 0.2 µM [3, 11]: 95.4% | viability at 1 µM [3, 10]: 76.8% | viability at 1 µM [3, 11]: 97% | viability at 4 µM [3, 10]: 31.4% | viability at 4 µM [3, 11]: 22.2% | viability at 10 µM [3, 10]: 1.94% | viability at 10 µM [3, 11]: 1.93% | viability at 20 µM [3, 10]: 1.88% | viability at 20 µM [3, 11]: 3.89% | Luminescence Raw1 ([4]; 0.04 µM, replicate 1): 2678864 | Luminescence Raw2 ([4]; 0.04 µM, replicate 2): 2844064 | Luminescence Raw1 ([4]; 0.2 µM, replicate 1): 2387791 | Luminescence Raw2 ([4]; 0.2 µM, replicate 2): 2484453 | Luminescence Raw1 ([4]; 1 µM, replicate 1): 1292136 | Luminescence Raw2 ([4]; 1 µM, replicate 2): 490161 | Luminescence Raw1 ([4]; 4 µM, replicate 1): 264802 | Luminescence Raw2 ([4]; 4 µM, replicate 2): 275258 | Luminescence Raw1 ([4]; 10 µM, replicate 1): 251461 | Luminescence Raw2 ([4]; 10 µM, replicate 2): 258312 | Luminescence Raw1 ([4]; 20 µM, replicate 1): 208914 | Luminescence Raw2 ([4]; 20 µM, replicate 2): 269129 | IC50 [4, 7]: 2780 nM | IC50 ([4]; average±SEM, read-out: IC50): 2780 ± 680 nM | IC50 [4, 8]: 3460 nM | IC50 [4, 9]: 2100 nM | viability at 0.04 µM [5, 10]: 195% | viability at 0.04 µM [5, 11]: 207% | viability at 0.2 µM [5, 10]: 174% | viability at 0.2 µM [5, 11]: 181% | viability at 1 µM [5, 10]: 94.2% | viability at 1 µM [5, 11]: 35.7% | viability at 4 µM [5, 10]: 19.3% | viability at 4 µM [5, 11]: 20.1% | viability at 10 µM [5, 10]: 18.3% | viability at 10 µM [5, 11]: 18.8% | viability at 20 µM [5, 10]: 15.2% | viability at 20 µM [5, 11]: 19.6% | EC50 [6, 13]: < 200 nM | EC50 [6, 12]: 1360 nM
